From PMC8046226, “Koala cathelicidin PhciCath5 has antimicrobial activity, including against Chlamydia pecorum” (PLoS ONE, 2021)
Where two headings read alike, the source gives them in different places. Residues, ends and D or L forms follow the SMILES beside them. No end group written: not given here.

Assays:
[1] = test system: C. pecorum IPTaLE; assay: Chlamydia pecorum antimicrobial susceptibility (elementary body inactivation, IFU/mL); format: cell-based; conditions: 125, 250 and 500μg/mL; less than half an order of magnitude difference in chlamydial inclusions compared with the control
Procedure: (§1) C. pecorum IPTaLE and MarsBar were cultured in mouse McCoy B cells, on DMEM supplemented with 10% foetal calf serum (FCS), 0.1mg/mL streptomycin and 0.05mg/mL gentamicin at 37°C in a 5% CO2 atmosphere. Cell lines were routinely tested for mycoplasma contamination every 2 months. Prior to performing antimicrobial susceptibility assays, 96-well plates were seeded with 30,000 host cells per well 24 hours prior to chlamydial infection as described previously. For the antimicrobial assays, koala cathelicidin mature peptides, PhciCath1, 2, 3, 5 and 6, were solubilized in water for cell culture with 0.01% acetic acid, and two-fold dilutions were made in sucrose-phosphate-glutamic acid (SPG) media from 1mg to 250μg/mL, in triplicate. Cathelicidin containing wells were diluted one in two with C. pecorum IPTaLE and MarsBar EBs and incubated for 2 hours at 37°C, giving a final cathelicidin concentration of 500, 250 and 125μg/mL. A negative SPG only control was included. To exclude the possibility of cathelicidin toxicity to McCoy cells, cathelicidin dilutions were removed by centrifugation and C. pecorum EBs re-suspended in DMEM supplemented with 10% FCS, 0.1mg/mL streptomycin and 0.05mg/mL gentamycin. The suspension was used to infect a McCoy B ATCC CRL-1696 cell monolayer at a Multiplicity of Infection (MOI) of 0.6 as described previously. […]

[2] = test system: C. pecorum MarsBar; assay: as above; format: cell-based; conditions: 125, 250 and 500μg/mL; less than half an order of magnitude difference in chlamydial inclusions compared with the control
Procedure: as §1

[3] = test system: C. trachomatis; conditions: cited from earlier work
Excerpt: Koala cathelicidin PhciCath5 inactivated C. pecorum MarsBar and IPTaLE elementary bodies (EB) and was the only peptide tested that caused biologically and statistically significant reductions in chlamydial inclusions. […] Timing of cathelicidin release from immune and epithelial cells within the host may not enable direct interaction with EB. […] Indeed, proteases secreted by this C. trachomatis neutralise LL-37 anti-chlamydial activity, thereby evading AMP attack and ensuring extracellular EB survival. ...

[4] = test system: MRSA (animal isolate); format: cell-based, Staphylococcus aureus; conditions: broth microdilution (CLSI), MH II B with magnesium and calcium cations, 35°C, 20–48 hours
Procedure: (§2) Antimicrobial activity was determined against a range of bacteria and fungi from humans and animals using a broth microdilution susceptibility assay according to clinical laboratory standards institute (CLSI) guidelines in 96 well polypropylene plates as described previously. Briefly, cathelicidins were dissolved in DMSO and serially diluted, in cation-adjusted Mueller Hinton Broth (MH II B) with or without 10% lysed horse blood for bacteria, and yeast nitrogen base (YNB) for fungi. Cathelicidin concentrations ranged between 64μg/mL and 0.125μg/mL in a final volume of 100μL. For all bacteria and fungi tested, ampicillin, tetracycline and fluconazole were included as positive controls, in addition to a media-only control and growth control (no inhibitor). Bacteria and fungi were sub-cultured 20–24 hours prior to the test, suspended in saline and their concentration adjusted to a 0.5 McFarland standard. Microorganisms were then diluted to a concentration of 0.5–1.0x10^6 cells/mL, with colony counts performed to confirm microorganism density, and 100μL was dispensed into the wells of the cathelicidin dilution plate. […] Antimicrobial activity was expressed as minimum inhibitory concentration (MIC), which was defined as the lowest concentration of cathelicidin preventing visible bacterial growth, relative to the no-drug control. […]

[5] = test system: C. parapsilosis ATCC 22019; assay: Broth microdilution susceptibility assay (MIC); format: cell-based, Candida parapsilosis; conditions: broth microdilution (CLSI), yeast nitrogen base (YNB) for fungi, 35°C, 20–48 hours
Procedure: as §2

[6] = test system: S. mutans; format: cell-based
Procedure: (§3) Antimicrobial activity was determined against a range of bacteria and fungi from humans and animals using a broth microdilution susceptibility assay according to clinical laboratory standards institute (CLSI) guidelines in 96 well polypropylene plates as described previously. Briefly, cathelicidins were dissolved in DMSO and serially diluted, in cation-adjusted Mueller Hinton Broth (MH II B) with or without 10% lysed horse blood for bacteria, and yeast nitrogen base (YNB) for fungi. Cathelicidin concentrations ranged between 64μg/mL and 0.125μg/mL in a final volume of 100μL. For all bacteria and fungi tested, ampicillin, tetracycline and fluconazole were included as positive controls, in addition to a media-only control and growth control (no inhibitor). Bacteria and fungi were sub-cultured 20–24 hours prior to the test, suspended in saline and their concentration adjusted to a 0.5 McFarland standard. Microorganisms were then diluted to a concentration of 0.5–1.0x10^6 cells/mL, with colony counts performed to confirm microorganism density, and 100μL was dispensed into the wells of the cathelicidin dilution plate. All plates were incubated at 35°C for 20–48 hours depending on the strain. Antimicrobial activity was expressed as minimum inhibitory concentration (MIC), which was defined as the lowest concentration of cathelicidin preventing visible bacterial growth, relative to the no-drug control. The same microdilution susceptibility assay was performed using Mueller Hinton Broth without the addition of the divalent cations calcium and magnesium (MHB), to test the effect of the cations on PhciCath5 activity against the ATCC strains E. coli 25922 and S. aureus 29213.

[7] = test system: S. agalactiae ATCC12386; format: cell-based
Procedure: as §3

[8] = test system: S. pneumoniae ATCC49619; format: cell-based
Procedure: as §3

[9] = test system: S. oralis; format: cell-based
Procedure: as §3

[10] = test system: S. aureus ATCC29213; format: cell-based
Procedure: as §3

[11] = test system: S. salivarius; format: cell-based
Procedure: as §3

[12] = test system: E. coli ATCC25922; format: cell-based
Procedure: as §3

[13] = test system: S. pyogenes ATCC19615; format: cell-based
Procedure: as §3

[14] = test system: P. aeruginosa ATCC27853; format: cell-based
Procedure: as §3

[15] = test system: S. lutetiensis; format: cell-based
Procedure: as §3

[16] = test system: S. dysgalactiae; format: cell-based
Procedure: as §3

[17] = test system: S. equi (animal isolate); assay: Broth microdilution susceptibility assay (MIC); format: cell-based; conditions: broth microdilution (CLSI), MH II B with magnesium and calcium cations, 35°C, 20–48 hours
Procedure: as §3

[18] = test system: E. coli (animal isolate); assay: Broth microdilution susceptibility assay (MIC); format: cell-based; conditions: broth microdilution (CLSI), MH II B with magnesium and calcium cations, 35°C, 20–48 hours
Procedure: as §3

[19] = test system: P. multocida (animal isolate); assay: Broth microdilution susceptibility assay (MIC); format: cell-based; conditions: broth microdilution (CLSI), MH II B with magnesium and calcium cations, 35°C, 20–48 hours
Procedure: as §3

[20] = test system: L. monocytogenes (animal isolate); assay: Broth microdilution susceptibility assay (MIC); format: cell-based; conditions: broth microdilution (CLSI), MH II B with magnesium and calcium cations, 35°C, 20–48 hours
Procedure: as §3

[21] = test system: C. glabrata; assay: Broth microdilution susceptibility assay (MIC); format: cell-based; conditions: broth microdilution (CLSI), yeast nitrogen base (YNB) for fungi, 35°C, 20–48 hours
Procedure: as §3

[22] = test system: C. albicans; assay: Broth microdilution susceptibility assay (MIC); format: cell-based; conditions: broth microdilution (CLSI), yeast nitrogen base (YNB) for fungi, 35°C, 20–48 hours
Procedure: as §3

[23] = test system: P. aeruginosa (animal isolate); assay: Broth microdilution susceptibility assay (MIC); format: cell-based; conditions: broth microdilution (CLSI), MH II B with magnesium and calcium cations, 35°C, 20–48 hours
Procedure: as §3

[24] = test system: S. agalactiae (animal isolate); assay: Broth microdilution susceptibility assay (MIC); format: cell-based; conditions: broth microdilution (CLSI), MH II B with magnesium and calcium cations, 35°C, 20–48 hours
Procedure: as §3

[25] = test system: S. aureus (animal isolate); assay: Broth microdilution susceptibility assay (MIC); format: cell-based; conditions: broth microdilution (CLSI), MH II B with magnesium and calcium cations, 35°C, 20–48 hours
Procedure: as §3

[26] = test system: K. pneumoniae (animal isolate); assay: Broth microdilution susceptibility assay (MIC); format: cell-based; conditions: broth microdilution (CLSI), MH II B with magnesium and calcium cations, 35°C, 20–48 hours
Procedure: as §3

[27] = test system: C. krusei ATCC 6258; assay: Broth microdilution susceptibility assay (MIC); format: cell-based, Candida krusei; conditions: broth microdilution (CLSI), yeast nitrogen base (YNB) for fungi, 35°C, 20–48 hours
Procedure: as §2

CC[C@H](C)[C@H](NC(=O)[C@H](CCCNC(=N)N)NC(=O)[C@H](CCCCN)NC(=O)[C@H](Cc1ccccc1)NC(=O)[C@H](CCCNC(=N)N)NC(=O)[C@H](CC(C)C)NC(=O)[C@@H]1CCCN1C(=O)[C@H](CCC(=O)O)NC(=O)[C@@H]1CCCN1C(=O)[C@@H]1CCCN1)C(=O)N[C@@H](CCCNC(=N)N)C(=O)N[C@@H](CS)C(=O)N[C@@H](CC(C)C)C(=O)N[C@@H](CC(N)=O)C(=O)NCC(=O)N[C@@H](CCCNC(=N)N)C(=O)N[C@@H](CCCCN)C(=O)N[C@@H](CS)C(=O)N[C@@H](CC(N)=O)C(=O)N[C@@H](Cc1ccc(O)cc1)C(=O)N[C@@H](Cc1c[nH]cn1)C(=O)N[C@@H](CC(N)=O)C(=O)N[C@@H](CC(C)C)C(=O)N[C@@H](CC(C)C)C(=O)N[C@@H](CC(C)C)C(=O)N[C@H](C(=O)N[C@H](C(=O)N[C@H](C(=O)N1CCC[C@H]1C(=O)N[C@@H](Cc1c[nH]cn1)C(=O)N[C@@H](Cc1c[nH]c2ccccc12)C(=O)N[C@@H](CCCNC(=N)N)C(=O)N[C@H](C(=O)N1CCC[C@H]1C(=O)N[C@@H](CCCCN)C(=O)NCC(=O)N[C@@H](CCCCN)C(=O)O)[C@@H](C)CC)C(C)C)[C@@H](C)CC)[C@@H](C)O [PhciCath3] (H-PPEPLRFKRIRCLNGRKCNYHNLLLTIVPHWRIPKGK-OH)
ineffective: activity against C. pecorum IPTaLE up to 500ug/mL [1] | activity against C. pecorum MarsBar up to 500ug/mL [2]

PG-1: pig protegrin PG-1, a eutherian cathelicidin (RGGRLCYCRRRFCVCVGR; ends and bridges not checked; cysteine pairing not given here; UniProt P32194 131-148, looked up)
1.25 µg/mL: concentration which reduced the infectivity of C. trachomatis ([3]; single round of infection)
~100%: reduction in infectivity ([3]; treatment of extracellular EBs)
67%: reduction in infectivity ([3]; treatment of intracellular C. trachomatis)

CC[C@H](C)[C@H](NC(=O)CNC(=O)CNC(=O)[C@H](CCCNC(=N)N)NC(=O)[C@@H](N)CCCCN)C(=O)N[C@@H](Cc1c[nH]c2ccccc12)C(=O)N[C@@H](CCCCN)C(=O)N[C@@H](CC(C)C)C(=O)N[C@H](C(=O)N[C@@H](CCCNC(=N)N)C(=O)N1CCC[C@H]1C(=O)N[C@@H](CC(C)C)C(=O)NCC(=O)N[C@@H](CCCNC(=N)N)C(=O)NCC(=O)N[C@@H](C)C(=O)NCC(=O)N[C@@H](CCCNC(=N)N)C(=O)N[C@H](C(=O)N[C@@H](CC(C)C)C(=O)N[C@@H](CCCNC(=N)N)C(=O)N[C@@H](Cc1c[nH]cn1)C(=O)N[C@@H](Cc1ccccc1)C(=O)N[C@@H](Cc1c[nH]cn1)C(=O)N[C@H](C(=O)N[C@@H](CC(=O)O)C(=O)N[C@@H](Cc1ccccc1)C(=O)N[C@@H](CS)C(=O)NCC(=O)N[C@@H](CC(N)=O)C(=O)N[C@@H](CS)C(=O)O)[C@@H](C)CC)[C@@H](C)CC)[C@@H](C)CC [PhciCath5] (H-KRGGIWKLIRPLGRGAGRILRHFHIDFCGNC-OH)
>64 µg/mL: MIC [6] | MIC [8] | MIC [9] | MIC [14] | MIC [15] | MIC [16] | MIC [17] | MIC [19] | MIC [21] | MIC [22] | MIC [23] | MIC [26]
32 µg/mL: MIC [5]
64 µg/mL: MIC [7] | MIC [11] | MIC [12] | MIC [13] | MIC [20] | MIC [24] | MIC [27]
11 µg/mL: MIC (in brackets) [10] | MIC (in brackets) [12]
8 µg/mL: MIC [25]
16 µg/mL: MIC [4] | MIC [10] | MIC [18]
